Data taken from US12171756B2, “NLRP3 modulators” (Innate Tumor Immunity, Inc., priority 2017, dated 2024).

Assays:
[1] = tested on: IL-1β production in PMA-differentiated THP-1 cells; test: Measurement of IL-1β production in PMA-differentiated THP-1 cells (ELISA, 4 hours); type: cell-based, human; conditions: Homo sapiens, THP-1, human IL-1β production, assayed using one or more of the described procedures, read-out: NLRP3 hIL1B IC50
Experimental: Measurement of IL-1β Production in PMA-Differentiated THP-1 Cells THP-1 cells were purchased from the American Type Culture Collection and sub-cultured according to instructions from the supplier. Prior to experiments, cells were cultured in RPMI 1640 containing 10% heat inactivated FBS, penicillin (100 units/ml) and streptomycin (100 μg/ml), and maintained in log phase prior to experimental setup. Prior to the experiment THP-1 were treated with PMA (Phorbol 12-myristate 13-acetate) (10 μg/ml) for 24 hours. The day of the experiment the media was removed and attaching cells were treated with trypsin for 2 minutes, cells were then collected, washed with PBS (phosphate buffer saline), spin down, resuspended in 2% heat inactivated FBS with RPMI at a concentration of 1×10^6 cells/ml, and 100 μl was plated in a 96 well plate. Compounds were dissolved in dimethyl sulfoxide (DMSO) and added to the culture medium to achieve desired concentration (e.g. 100, 30, 10, 3, 1, 0.3 or 0.1 μM). Cells were incubated with compounds for 4 hours. Cell free supernatant was collected and the production of IL-1β was evaluated by ELISA. A vehicle only control was run concurrently with each experiment. Final DMSO concentration was 1%.

human TLR7 = molecular target: T1, human TLR7 (Homo sapiens, UniProt Q9NYK1); test: In vitro human TLR7 binding reporter assay (HEK-Blue, NF-kB/AP1-inducible SEAP); type: cell-based; conditions: HEK-Blue human TLR7 SEAP reporter cells; activity range classes; read-out: TLR7 Agonist EC50
T1 construct: host or cells: human HEK-Blue cells (HEK293-derived) co-expressing TLR7 and an NF-kB/AP1-inducible SEAP reporter
T1 sequence (Q9NYK1 27-1049): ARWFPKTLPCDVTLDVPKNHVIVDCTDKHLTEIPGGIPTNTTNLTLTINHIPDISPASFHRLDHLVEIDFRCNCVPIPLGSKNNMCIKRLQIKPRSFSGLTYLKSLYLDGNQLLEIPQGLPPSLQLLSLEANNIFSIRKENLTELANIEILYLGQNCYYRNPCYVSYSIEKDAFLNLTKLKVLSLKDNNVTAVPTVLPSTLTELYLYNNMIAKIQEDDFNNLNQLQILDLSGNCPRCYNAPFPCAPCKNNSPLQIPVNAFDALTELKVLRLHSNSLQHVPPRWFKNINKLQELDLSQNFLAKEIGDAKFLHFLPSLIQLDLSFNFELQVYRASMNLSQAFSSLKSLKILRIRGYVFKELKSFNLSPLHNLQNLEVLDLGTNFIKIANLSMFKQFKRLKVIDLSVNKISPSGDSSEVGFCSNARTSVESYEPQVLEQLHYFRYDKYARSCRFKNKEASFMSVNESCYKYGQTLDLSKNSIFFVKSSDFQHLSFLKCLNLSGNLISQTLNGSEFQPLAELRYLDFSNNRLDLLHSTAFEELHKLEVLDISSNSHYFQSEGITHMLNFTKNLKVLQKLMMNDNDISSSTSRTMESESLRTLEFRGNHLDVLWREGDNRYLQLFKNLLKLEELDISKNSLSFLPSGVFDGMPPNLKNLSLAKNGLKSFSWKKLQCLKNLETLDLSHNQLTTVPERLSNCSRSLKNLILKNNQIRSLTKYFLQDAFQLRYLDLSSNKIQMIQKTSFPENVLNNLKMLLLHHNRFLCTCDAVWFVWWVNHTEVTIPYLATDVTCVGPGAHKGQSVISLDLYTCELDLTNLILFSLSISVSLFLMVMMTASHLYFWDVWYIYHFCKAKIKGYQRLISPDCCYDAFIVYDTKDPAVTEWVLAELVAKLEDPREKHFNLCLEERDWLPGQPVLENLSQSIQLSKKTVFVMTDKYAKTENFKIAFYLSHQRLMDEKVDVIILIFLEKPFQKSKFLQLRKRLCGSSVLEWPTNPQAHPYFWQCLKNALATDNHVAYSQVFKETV
Experimental: (§1) In Vitro Human TLR7 and TLR8 Binding Reporter Assays
(§2) Logarithmically-growing human HEK-Blue cells co-expressing a TLR7 or TLR8 gene and a NF-kB/AP1-inducible SEAP (secreted embryonic alkaline phosphatase; Invivogen, San Diego, CA) reporter gene are added to individual wells of a 384-well plate (15,000 cells per 20 μL per well) and maintained for 24 h at 37° C., 5% CO2. Test compounds or DMSO are distributed to separate wells the next day using acoustic liquid handling technology (100 nL per well) and cells are subsequently incubated for 18 h at 37° C., 5% CO2. Cellular SEAP production is measured using an Envision plate reader instrument thirty minutes after adding freshly-made Quanti-Blue reagent (prepared by following manufacturer instructions; Invivogen, San Diego, CA) to the HEK-Blue TLR Nf-kB-SEAP cell reactions. All EC50 values (half-maximal effective concentration) are determined using proprietary data analysis software. Normalized EC50 value=absolute value determined by setting 100% Ymax using a reference standard RLU (relative light unit) values from cells treated with 50 μM of the reference standard.

human TLR8 = molecular target: T2, human TLR8 (Homo sapiens, UniProt Q9NR97); test: In vitro human TLR8 binding reporter assay (HEK-Blue, NF-kB/AP1-inducible SEAP); type: cell-based; conditions: HEK-Blue human TLR8 SEAP reporter cells; activity range classes; read-out: TLR8 Agonist EC50
T2 construct: host or cells: human HEK-Blue cells (HEK293-derived) co-expressing TLR8 and an NF-kB/AP1-inducible SEAP reporter
T2 sequence (Q9NR97 27-1041): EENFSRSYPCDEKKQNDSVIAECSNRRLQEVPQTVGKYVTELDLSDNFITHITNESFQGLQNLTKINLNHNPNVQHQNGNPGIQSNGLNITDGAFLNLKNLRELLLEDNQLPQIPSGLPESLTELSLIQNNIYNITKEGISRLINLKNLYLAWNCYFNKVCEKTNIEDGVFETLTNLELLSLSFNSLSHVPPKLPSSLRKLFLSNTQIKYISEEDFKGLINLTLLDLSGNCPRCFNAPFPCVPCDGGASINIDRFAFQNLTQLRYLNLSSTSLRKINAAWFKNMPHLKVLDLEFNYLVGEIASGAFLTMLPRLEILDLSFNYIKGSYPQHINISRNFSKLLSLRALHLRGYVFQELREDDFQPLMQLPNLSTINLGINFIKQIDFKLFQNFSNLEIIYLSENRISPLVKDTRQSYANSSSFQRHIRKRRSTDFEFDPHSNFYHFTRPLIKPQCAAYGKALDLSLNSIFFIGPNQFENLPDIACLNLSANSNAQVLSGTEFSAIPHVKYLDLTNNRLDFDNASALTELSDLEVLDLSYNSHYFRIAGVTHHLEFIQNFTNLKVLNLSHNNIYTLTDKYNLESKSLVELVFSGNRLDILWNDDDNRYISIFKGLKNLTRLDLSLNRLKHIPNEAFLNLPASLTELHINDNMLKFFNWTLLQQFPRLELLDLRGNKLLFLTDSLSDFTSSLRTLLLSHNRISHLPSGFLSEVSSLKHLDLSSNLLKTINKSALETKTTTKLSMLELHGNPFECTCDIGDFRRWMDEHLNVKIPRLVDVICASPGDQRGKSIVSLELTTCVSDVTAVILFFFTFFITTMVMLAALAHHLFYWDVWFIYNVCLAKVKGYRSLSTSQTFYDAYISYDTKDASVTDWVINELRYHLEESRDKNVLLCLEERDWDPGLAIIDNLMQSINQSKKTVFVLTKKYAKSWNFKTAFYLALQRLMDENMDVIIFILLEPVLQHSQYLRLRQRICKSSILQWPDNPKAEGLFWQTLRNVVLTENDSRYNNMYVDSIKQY
Experimental: as §1, §2

Compound | IC50 [1] | EC50 (human TLR7) | EC50 (human TLR8)
CCN(CCCc1cc2ccc(-c3cc[nH]n3)cc2nc1N)C(C)=O [Compound 112, N-[3-[2-amino-7-(1H-pyrazol-3-yl)quinolin-3-yl]propyl]-N-ethylacetamide] | 2.56 µM | > 100 µM | > 100 µM
COCc1cc2ccc(-c3ccn[nH]3)cc2nc1N [Compound 113, 3-(methoxymethyl)-7-(1H-pyrazol-5-yl)quinolin-2-amine] | 11.9 µM | > 100 µM | > 100 µM
Nc1nc2cc(-c3ccn[nH]3)ccc2cc1CCCN1CCCCC1 [Compound 114] | 4.25 µM | > 100 µM | > 100 µM
Nc1nc2cc(-c3ccn[nH]3)ccc2cc1CN1CCOCC1 [Compound 115] | 3.04 µM | > 100 µM | > 100 µM
Nc1nc2cc(-c3ccn[nH]3)ccc2cc1C1CCOCC1 [Compound 116] | 4.07 µM | > 100 µM | > 100 µM
CN(C)C1CCN(Cc2cc3ccc(-c4ccn[nH]4)cc3nc2N)CC1 [Compound 118] | 1.73 µM | > 100 µM | > 100 µM
Nc1nc2cc(-c3ccn[nH]3)ccc2cc1CN1CCCC1=O [Compound 119] | 3.07 µM | > 100 µM | 20 to 100 µM
Nc1nc2cc(-c3ccn[nH]3)ccc2cc1C(=O)Nc1cccnc1 [Compound 124] | 14.5 µM | > 100 µM | > 100 µM
Nc1nc2cc(-c3ccn[nH]3)ccc2cc1-c1ccc2[nH]ncc2c1 [Compound 127] | 1.15 µM | > 100 µM | > 100 µM
Nc1cc(NCc2cc[nH]n2)c2ccc(-c3ccn[nH]3)cc2n1 [Compound 128, N4-((1H-pyrazol-3-yl)methyl)-7-(1H-pyrazol-5-yl)quinoline-2,4-diamine] | 0.1 µM | > 100 µM | > 100 µM
COc1cccc(C(C)Nc2cc(N)nc3cc(-c4ccn[nH]4)ccc23)n1 (stereo not drawn) [Compound 129, N4-(1-(6-methoxypyridin-2-yl)ethyl)-7-(1H-pyrazol-5-yl)quinoline-2,4-diamine] | 2.29 µM | > 100 µM | > 100 µM
Nc1cc(N2CCOCC2)c2ccc(-c3ccn[nH]3)cc2n1 [Compound 131] | 0.85 µM | > 100 µM | > 100 µM
C[C@@H](O)CNc1cc(N)nc2cc(-c3ccn[nH]3)ccc12 [Compound 133] | 0.3 µM | > 100 µM | > 100 µM
C[C@H](O)CNc1cc(N)nc2cc(-c3ccn[nH]3)ccc12 [Compound 134] | 0.29 µM | > 100 µM | > 100 µM
Nc1cc(NCc2ccccn2)c2ccc(-c3ccn[nH]3)cc2n1 [Compound 135] | 0.12 µM | > 100 µM | > 100 µM
CN(CCO)c1cc(N)nc2cc(-c3ccn[nH]3)ccc12 [Compound 136] | 3.02 µM | > 100 µM | > 100 µM
Nc1cc(NCC2CCOCC2)c2ccc(-c3ccn[nH]3)cc2n1 [Compound 137] | 0.55 µM | > 100 µM | > 100 µM
CN(C)C(=O)CCNc1cc(N)nc2cc(-c3ccn[nH]3)ccc12 [Compound 138] | 5.95 µM | 1 to 20 µM | > 100 µM
CNC(=O)CCNc1cc(N)nc2cc(-c3ccn[nH]3)ccc12 [Compound 139] | 2.01 µM | > 100 µM | > 100 µM
CS(=O)(=O)CCNc1cc(N)nc2cc(-c3ccn[nH]3)ccc12 [Compound 140] | 1.41 µM | > 100 µM | > 100 µM
Nc1cc(N2CC[C@H](O)C2)c2ccc(-c3ccn[nH]3)cc2n1 [Compound 142] | 1.43 µM | > 100 µM | > 100 µM
Nc1cc(N2CC[C@@H](O)C2)c2ccc(-c3ccn[nH]3)cc2n1 [Compound 143] | 5.81 µM | > 100 µM | > 100 µM
Nc1cc(NCCCCO)c2ccc(-c3ccn[nH]3)cc2n1 [Compound 144] | 0.48 µM | > 100 µM | > 100 µM
Nc1cc(N2CCC(O)CC2)c2ccc(-c3ccn[nH]3)cc2n1 [Compound 145] | 2.55 µM | > 100 µM | > 100 µM
Nc1cc(NCCNC(=O)c2ccccc2)c2ccc(-c3ccn[nH]3)cc2n1 [Compound 146] | 4.07 µM | > 100 µM | > 100 µM
Nc1cc(NCC2(O)CC2)c2ccc(-c3ccn[nH]3)cc2n1 [Compound 147] | 0.99 µM | > 100 µM | > 100 µM
Nc1cc(NCc2ccncc2)c2ccc(-c3ccn[nH]3)cc2n1 [Compound 148] | 1.64 µM | > 100 µM | > 100 µM
Nc1cc(NCc2cccnn2)c2ccc(-c3ccn[nH]3)cc2n1 [Compound 149] | 0.14 µM | > 100 µM | > 100 µM
Nc1cc(NCc2cccnc2)c2ccc(-c3ccn[nH]3)cc2n1 [Compound 150] | 0.22 µM | > 100 µM | > 100 µM
